Results published in PubChem BioAssay AID330 (DTP/NCI, 2004).
Several values for one entry are separate records, joined by “and”; a condition that tells them apart may be missing. Equal entries are not always repeated. Toxic doses and inconclusive results are not listed. Rule for the calls: active = survival T/C of 150% or more; inactive = T/C below 125% in these data.

System: P388 leukemia ip, CD2F1 mice, survival T/C
Experiment: NCI In Vivo Anticancer Drug Screen. Data for tumor model P388 Leukemia (intraperitoneal) in CD2F1 (CDF1) mice
Details: endpoint: median survival time, higher = longer survival
Procedure, shortened: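 Mice carrying the transplanted tumor received test compound or vehicle. Survival was recorded in each group, and the value is the treated-group measurement divided by that of the vehicle-treated control group.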

[1] = dose: 50.0 mg/kg/injection, schedule: Q01DX009 (ip), vehicle: Klucel (hydroxypropylcellulose) (HPC)
[2] = dose: 100.0 mg/kg/injection, schedule: Q01DX009 (ip), vehicle: Klucel (hydroxypropylcellulose) (HPC)
[3] = dose: 200.0 mg/kg/injection, schedule: Q01DX009 (ip), vehicle: Klucel (hydroxypropylcellulose) (HPC)
[4] = dose: 50.0 mg/kg/injection, schedule: Q01DX005 (ip), vehicle: saline
[5] = dose: 50.0 mg/kg/injection, schedule: Q01DX005 (ip), vehicle: saline with Tween-80
[6] = dose: 100.0 mg/kg/injection, schedule: Q01DX005 (ip), vehicle: saline with Tween-80
[7] = dose: 50.0 mg/kg/injection, schedule: Q01DX009 (ip), vehicle: saline with Tween-80
[8] = dose: 100.0 mg/kg/injection, schedule: Q01DX009 (ip), vehicle: saline with Tween-80
[9] = dose: 25.0 mg/kg/injection, schedule: Q01DX009 (ip), vehicle: saline with Tween-80
[10] = dose: 50.0 mg/kg/injection, schedule: Q01DX005 (ip), vehicle: Klucel (hydroxypropylcellulose) (HPC)
[11] = dose: 100.0 mg/kg/injection, schedule: Q01DX005 (ip), vehicle: Klucel (hydroxypropylcellulose) (HPC)

Measured: T/C

CC12CC(OC(=O)[C@]1(C)O)[C@@H]([C@]1(O)CC[C@H]3[C@@H]4C[C@H]5O[C@]56[C@@H](O)C=CC(=O)[C@]6(C)[C@H]4CC[C@@]31C)C2 (stereo partly specified)
inactive: dose: 2.0 mg/kg/injection, schedule: Q01DX009 (ip), vehicle: saline + alcohol 100 % of control | dose: 4.0 mg/kg/injection, schedule: Q01DX005 (ip), vehicle: saline + alcohol 108 % of control and 120 % of control | dose: 4.0 mg/kg/injection, schedule: Q01DX009 (ip), vehicle: saline + alcohol 105 % of control | dose: 8.0 mg/kg/injection, schedule: Q01DX005 (ip), vehicle: saline + alcohol 110 % of control and 111 % of control | dose: 8.0 mg/kg/injection, schedule: Q01DX009 (ip), vehicle: saline + alcohol 96 % of control | dose: 16.0 mg/kg/injection, schedule: Q01DX005 (ip), vehicle: saline + alcohol 109 % of control and 111 % of control | dose: 16.0 mg/kg/injection, schedule: Q01DX009 (ip), vehicle: saline + alcohol 96 % of control | dose: 32.0 mg/kg/injection, schedule: Q01DX005 (ip), vehicle: saline + alcohol 107 % of control | dose: 32.0 mg/kg/injection, schedule: Q01DX009 (ip), vehicle: saline + alcohol 87 % of control

COC(=O)c1ccccc1NC(=O)Nc1ncccn1
inactive: [1] 100 % of control | [2] 100 % of control | [3] 96 % of control

NN1C(=O)C2C3C=CC(O3)C2C1=O (stereo unspecified)
inactive: [4] 98 % of control | dose: 100.0 mg/kg/injection, schedule: Q01DX005 (ip), vehicle: saline 98 % of control | dose: 200.0 mg/kg/injection, schedule: Q01DX005 (ip), vehicle: saline 100 % of control

CC(CC(=O)c1ccccc1)=NCCCCN=C(C)CC(=O)c1ccccc1
inactive: dose: 25.0 mg/kg/injection, schedule: Q04DX002 (ip), vehicle: saline with Tween-80 104 % of control | dose: 25.0 mg/kg/injection, schedule: Q04DX003 (ip), vehicle: saline with Tween-80 101 % of control | [5] 91 % of control | dose: 50.0 mg/kg/injection, schedule: Q04DX002 (ip), vehicle: saline with Tween-80 96 % of control | dose: 50.0 mg/kg/injection, schedule: Q04DX003 (ip), vehicle: saline with Tween-80 95 % of control | [6] 95 % of control | dose: 100.0 mg/kg/injection, schedule: Q04DX002 (ip), vehicle: saline with Tween-80 105 % of control | dose: 100.0 mg/kg/injection, schedule: Q04DX003 (ip), vehicle: saline with Tween-80 92 % of control | dose: 200.0 mg/kg/injection, schedule: Q01DX005 (ip), vehicle: saline with Tween-80 88 % of control | dose: 200.0 mg/kg/injection, schedule: Q04DX002 (ip), vehicle: saline with Tween-80 98 % of control

CCCCCCCCCCCCCCCCS(=O)(=O)N/N=C(/c1ccccc1Cl)N1CCOCC1
inactive: [7] 92 % of control | [8] 93 % of control | dose: 200.0 mg/kg/injection, schedule: Q01DX009 (ip), vehicle: saline with Tween-80 94 % of control

COC(=O)C1CCCC(Sc2ccccc2)C1=O (stereo unspecified)
inactive: [9] 101 % of control | [7] 101 % of control | [8] 109 % of control

O=C(N/N=C/c1ccccc1[O-])c1ccccc1O.O=C(N/N=C/c1ccccc1[O-])c1ccccc1O.[Fe+2]
inactive: dose: 60.0 mg/kg/injection, schedule: Q01DX005 (ip), vehicle: Klucel (hydroxypropylcellulose) (HPC) 103 % of control | dose: 120.0 mg/kg/injection, schedule: Q01DX005 (ip), vehicle: Klucel (hydroxypropylcellulose) (HPC) 108 % of control | dose: 240.0 mg/kg/injection, schedule: Q01DX005 (ip), vehicle: Klucel (hydroxypropylcellulose) (HPC) 94 % of control

CCN(CC)CC[n+]1ccc2c(C)c3[nH]c4ccccc4c3c(C)c2c1
inactive: dose: 0.63 mg/kg/injection, schedule: Q04DX002 (ip), vehicle: water 110 % of control | dose: 0.78 mg/kg/injection, schedule: Q04DX003 (ip), vehicle: water 106 % of control | dose: 1.25 mg/kg/injection, schedule: Q04DX002 (ip), vehicle: water 115 % of control | dose: 1.56 mg/kg/injection, schedule: Q04DX003 (ip), vehicle: water 107 % of control and 120 % of control | dose: 2.5 mg/kg/injection, schedule: Q04DX002 (ip), vehicle: water 122 % of control | dose: 3.12 mg/kg/injection, schedule: Q04DX003 (ip), vehicle: water 123 % of control | dose: 6.25 mg/kg/injection, schedule: Q04DX003 (ip), vehicle: water 124 % of control | dose: 12.5 mg/kg/injection, schedule: Q04DX003 (ip), vehicle: water 124 % of control

COc1cc(NCCN(C(C)C)C(C)C)c2ncccc2c1
inactive: dose: 12.5 mg/kg/injection, schedule: Q01DX005 (ip), vehicle: saline 101 % of control | dose: 25.0 mg/kg/injection, schedule: Q01DX005 (ip), vehicle: saline 93 % of control | [4] 90 % of control and 92 % of control

CN1C(=O)C(=C2C=C(c3ccccc3)C(C#N)(c3ccccc3)C(c3ccccc3)=C2)C(=O)N(C)C1=O (stereo unspecified)
inactive: [10] 106 % of control | [11] 107 % of control | dose: 200.0 mg/kg/injection, schedule: Q01DX005 (ip), vehicle: Klucel (hydroxypropylcellulose) (HPC) 101 % of control

CN([NH-])C(=S)[S-].CN([NH-])C(=S)[S-].[Pt+4]
inactive: dose: 25.0 mg/kg/injection, schedule: Q04DX003 (ip), vehicle: Klucel (hydroxypropylcellulose) (HPC) 107 % of control | dose: 50.0 mg/kg/injection, schedule: Q04DX003 (ip), vehicle: Klucel (hydroxypropylcellulose) (HPC) 100 % of control | dose: 100.0 mg/kg/injection, schedule: Q04DX003 (ip), vehicle: Klucel (hydroxypropylcellulose) (HPC) 90 % of control

COc1cc(C)c(OC)c(CC=C(C)CC(=O)C[C@@]2(C)CCC[C@@]2(C)C(=O)CCC(C)(C)O)c1 (mixture of isomers)
inactive: dose: 25.0 mg/kg/injection, schedule: Q01DX005 (ip), vehicle: saline with Tween-80 93 % of control | [5] 91 % of control | [6] 95 % of control

CNC(=O)OCc1c(Cl)nc2sccn12
inactive: dose: 100.0 mg/kg/injection, schedule: Q01DX001 (ip), vehicle: Klucel (hydroxypropylcellulose) (HPC) 109 % of control | dose: 200.0 mg/kg/injection, schedule: Q01DX001 (ip), vehicle: Klucel (hydroxypropylcellulose) (HPC) 100 % of control | dose: 400.0 mg/kg/injection, schedule: Q01DX001 (ip), vehicle: Klucel (hydroxypropylcellulose) (HPC) 100 % of control

O=C(Oc1ccccc1)N1CCCC(O)C1 (stereo unspecified)
inactive: [1] 96 % of control | [2] 105 % of control | [3] 100 % of control

COC(=O)/C=N/Nc1ccc(C)cc1
inactive: dose: 25.0 mg/kg/injection, schedule: Q01DX009 (ip), vehicle: other 89 % of control | dose: 50.0 mg/kg/injection, schedule: Q01DX009 (ip), vehicle: other 86 % of control | dose: 100.0 mg/kg/injection, schedule: Q01DX009 (ip), vehicle: other 96 % of control | dose: 200.0 mg/kg/injection, schedule: Q01DX009 (ip), vehicle: other 103 % of control | dose: 400.0 mg/kg/injection, schedule: Q01DX009 (ip), vehicle: other 108 % of control

Cn1cc(C2NC(=O)c3ccccc3N2)c2ccccc21 (stereo unspecified)
inactive: dose: 25.0 mg/kg/injection, schedule: Q01DX005 (ip), vehicle: Klucel (hydroxypropylcellulose) (HPC) 102 % of control | [10] 106 % of control | dose: 88.0 mg/kg/injection, schedule: Q01DX005 (ip), vehicle: Klucel (hydroxypropylcellulose) (HPC) 113 % of control | [11] 115 % of control

[I][Ga]([I])[I]
inactive: [9] 116 % of control | [7] 111 % of control | [8] 100 % of control | dose: 100.0 mg/kg/injection, schedule: Q04DX003 (ip), vehicle: saline sonified 100 % of control

Cc1ccc(S(=O)(=O)Sc2nnnn2-c2ccccc2)cc1
inactive: [1] 97 % of control | [2] 103 % of control | [3] 97 % of control
